Reference: patent US20240374585A1, “EPITHELIAL SODIUM CHANNEL (ENAC) INHIBITOR CONJUGATES AND METHODS FOR USE THEREOF” (Lung Therapeutics, Inc., priority 2021, published 2024)
Where a SMILES comes first, the peptide text is derived from it. [ ]: non-standard residue; d: D form. The star is where a group is joined. X2 = NC(=NC(=O)c1nc(Cl)c(N)nc1N)NCCCCN1C(=O)CC(*)C1=O; Hyp = O=C(O)[C@@H]1C[C@@H](O)CN1; Ahx = NCCCCCC(=O)O

Biological target: T1, ENaC (Homo sapiens, UniProt P37088+P51168+P51170)
T1 construct: Primary NHBE cells were isolated from bronchi of normal healthy patients; endogenous in cells; host or cells: primary normal human bronchial epithelial (NHBE) cells, differentiated at air-liquid interface
T1 sequence (P37088 1-669): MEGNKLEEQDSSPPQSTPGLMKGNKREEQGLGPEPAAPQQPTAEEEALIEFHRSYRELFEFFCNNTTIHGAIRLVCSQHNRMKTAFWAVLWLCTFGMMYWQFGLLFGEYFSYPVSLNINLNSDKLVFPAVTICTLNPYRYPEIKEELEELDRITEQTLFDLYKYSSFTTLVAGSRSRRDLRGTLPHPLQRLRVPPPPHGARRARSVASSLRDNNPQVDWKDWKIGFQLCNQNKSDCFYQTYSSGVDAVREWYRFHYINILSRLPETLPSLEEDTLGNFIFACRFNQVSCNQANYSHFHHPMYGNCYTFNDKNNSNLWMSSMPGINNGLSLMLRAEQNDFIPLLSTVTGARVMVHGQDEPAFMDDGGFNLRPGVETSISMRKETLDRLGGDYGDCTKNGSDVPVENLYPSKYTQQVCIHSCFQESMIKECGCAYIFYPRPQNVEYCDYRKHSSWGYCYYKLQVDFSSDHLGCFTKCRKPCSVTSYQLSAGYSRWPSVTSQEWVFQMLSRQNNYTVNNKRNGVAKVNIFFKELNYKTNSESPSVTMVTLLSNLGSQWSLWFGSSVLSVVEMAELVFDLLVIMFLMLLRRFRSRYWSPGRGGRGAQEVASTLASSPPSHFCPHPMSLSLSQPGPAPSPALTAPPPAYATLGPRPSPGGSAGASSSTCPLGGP
T1 sequence (P51168 1-640): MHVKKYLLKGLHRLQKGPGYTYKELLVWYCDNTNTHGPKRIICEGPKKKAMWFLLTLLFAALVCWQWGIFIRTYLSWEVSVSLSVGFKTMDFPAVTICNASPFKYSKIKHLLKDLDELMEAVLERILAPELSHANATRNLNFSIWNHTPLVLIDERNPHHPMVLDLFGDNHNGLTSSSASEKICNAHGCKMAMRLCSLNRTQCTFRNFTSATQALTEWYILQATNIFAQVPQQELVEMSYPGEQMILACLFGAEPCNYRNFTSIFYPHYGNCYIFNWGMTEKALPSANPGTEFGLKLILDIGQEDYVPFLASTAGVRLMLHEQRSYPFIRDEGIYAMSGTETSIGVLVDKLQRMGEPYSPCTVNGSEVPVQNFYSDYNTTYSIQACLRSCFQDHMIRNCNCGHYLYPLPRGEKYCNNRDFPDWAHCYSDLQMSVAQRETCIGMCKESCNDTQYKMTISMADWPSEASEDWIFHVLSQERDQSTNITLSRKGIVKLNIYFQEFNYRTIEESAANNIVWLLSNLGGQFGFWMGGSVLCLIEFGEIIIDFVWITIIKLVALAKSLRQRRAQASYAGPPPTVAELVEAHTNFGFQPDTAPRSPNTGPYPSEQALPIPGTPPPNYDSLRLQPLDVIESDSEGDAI
T1 sequence (P51170 1-649): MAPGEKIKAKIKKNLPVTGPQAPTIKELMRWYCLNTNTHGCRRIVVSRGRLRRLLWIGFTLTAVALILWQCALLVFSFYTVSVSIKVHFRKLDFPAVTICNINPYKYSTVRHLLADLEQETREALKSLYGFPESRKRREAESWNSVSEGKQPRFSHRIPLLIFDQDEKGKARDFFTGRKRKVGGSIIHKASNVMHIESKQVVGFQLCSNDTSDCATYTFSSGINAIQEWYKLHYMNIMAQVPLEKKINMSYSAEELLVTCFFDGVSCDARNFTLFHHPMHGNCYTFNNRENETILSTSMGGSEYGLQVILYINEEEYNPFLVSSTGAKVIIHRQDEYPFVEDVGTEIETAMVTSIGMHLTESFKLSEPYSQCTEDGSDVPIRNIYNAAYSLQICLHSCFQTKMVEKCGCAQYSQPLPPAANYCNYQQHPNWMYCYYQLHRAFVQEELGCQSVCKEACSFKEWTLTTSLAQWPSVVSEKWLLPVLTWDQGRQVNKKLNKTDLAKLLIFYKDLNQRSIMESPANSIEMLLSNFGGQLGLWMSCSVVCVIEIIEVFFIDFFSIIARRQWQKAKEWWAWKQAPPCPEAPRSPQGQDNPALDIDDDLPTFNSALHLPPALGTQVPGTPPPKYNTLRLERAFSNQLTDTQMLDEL
Test: ENaC inhibition in NHBE cell monolayers, Ussing epithelial voltage clamp (short circuit current)
Format: cell-based
Conditions: not given
Description: The objective of this study was to measure the ability of the illustrative conjugates to modulate ion transport function of ENAC in normal human bronchial epithelial (NHBE) cell monolayers. Sodium transport function of ENAC expressed in NHBE monolayers was evaluated using an Ussing epithelial voltage clamp apparatus. See, Hirsh et al., J. Pharmacol. Exp. Ther. 2008; 325:77-88, hereby incorporated by reference in its entirety.
Primary NHBE cells were isolated from bronchi of normal healthy patients, expanded in Lonza media (BEGM™ BulletKit™), and plated on Snapwell™ filters to form an epithelium. Cells on Snapwell™ inserts were grown for at least 21 days in Vertex Differentiation media and exposed to an air-liquid interface to promote differentiation. At least one day before the assay, mucous overlaying the apical surface was removed from the inserts by incubating the apical surface for about 30 minutes with ≥200 μL of differentiation media followed by aspiration of the mucous film and media.
The NHBE cell monolayers grown on Snapwell™ filter inserts were transferred to Physiologic Instruments Ussing recording chambers (Physiologic Instruments, Inc., San Diego, CA) and superfused with HB-PS. One or more 6-channel or 8-channel Physiologic Instruments VCC MC6 or VCC MC8 epithelial voltage clamps were used in combination to record short circuit current (ISC) from up to 24 inserts simultaneously. Air was used to operate the bubble lifts to rapidly circulate solutions in each Ussing chamber half and to aerate the monolayers.
Inserts were voltage clamped at 0 m V to record the ISC. Bumetanide (20 μM) was added to the basolateral side of all inserts. Test conjugates prepared as DMSO (Sigma-Aldrich) stocks were added cumulatively and sequentially to the apical Ussing chamber halves with at least 3 minutes between each addition.
Time and volume matched additions of DMSO to the basolateral side of the test conjugate treated inserts and both sides of the vehicle treated inserts was made to maintain osmotic balance across the epithelia. Transepithelial resistance was monitored with small voltage steps. The assay was performed at 35±2° C.
ENaC current at each test conjugate concentration was calculated as the peak current change produced by each test conjugate treated insert minus the mean current change produced by the corresponding DMSO additions to time-matched vehicle controls inserts. Cumulative difference data was fit to a Hill equation of the form: […]
Where IEnaC is the ISC peak difference current measured at each test conjugate concentration [Test].

Row | Compound | IC50 [nM]
1 | CC[C@H](C)[C@H](NC(=O)[C@H](Cc1ccc(O)cc1)NC(=O)[C@@H]1C[C@@H](O)CN1C(=O)[C@H](C)NC(=O)[C@H](CC(C)C)NC(=O)[C@H](C)NC(=O)CCCCCNC(=O)[C@H](CSC1CC(=O)N(CCCCNC(N)=NC(=O)c2nc(Cl)c(N)nc2N)C1=O)NC(C)=O)C(N)=O (some centres unmarked) [Conjugate 10, Ac-(AmilTC-C)-Ahx-ALA(Hyp)YI-NH2] (Ac-C(X2)[Ahx]ALA[Hyp]YI-NH2) | 490
2 | CC(=O)N[C@@H](CCCCn1cc(CCCCCNC(N)=NC(=O)c2nc(Cl)c(N)nc2N)nn1)C(=O)NCCCCCC(=O)N[C@@H](C)C(=O)N[C@@H](CO)C(=O)N[C@@H](Cc1c[nH]cn1)C(=O)N[C@@H](CC(C)C)C(=O)N[C@@H](CCCNC(=N)N)C(=O)N[C@@H](CCCCN)C(=O)N[C@@H](CC(C)C)C(=O)N[C@@H](CCCNC(=N)N)C(=O)N[C@@H](CCCCN)C(=O)N[C@@H](CCCNC(=N)N)C(=O)N[C@@H](CC(C)C)C(=O)N[C@@H](CC(C)C)C(N)=O [Conjugate 5] | 30

Same assay, conditions: NHBE cell monolayers, Ussing chamber, apical addition, 35±2° C.

Row | Compound | IC50 for the ENaC inhibition
3 | Ac-K-(Ahx)-ASHLRKLRKRLL-NH2 (Ac-K[Ahx]ASHLRKLRKRLL-NH2) [Peptide only Control 2, Peptide only control, reference compound] | Did not inhibit
4 | Ac-K-(Ahx)-ALA(Hyp)YI-NH2 (Ac-K[Ahx]ALA[Hyp]YI-NH2) [Peptide only Control 1, Peptide only control, reference compound] | Did not inhibit
5 | Ac-K-(Ahx)-VSKRR-NH2 (Ac-K[Ahx]VSKRR-NH2) [Peptide only Control 3, Peptide only control, reference compound] | Did not inhibit

Same assay, conditions: NHBE cell monolayers, Ussing chamber, apical addition, 35±2° C.; read-out: IC50 for the ENaC inhibition

Row | Compound | IC50 [nM]
6 | CC(=O)N[C@@H](CCCCNC(N)=NC(=O)c1nc(Cl)c(N)nc1N)C(=O)NCCCCCC(=O)N[C@@H](C)C(=O)N[C@@H](CO)C(=O)N[C@@H](Cc1c[nH]cn1)C(=O)N[C@@H](CC(C)C)C(=O)N[C@@H](CCCNC(=N)N)C(=O)N[C@@H](CCCCN)C(=O)N[C@@H](CC(C)C)C(=O)N[C@@H](CCCNC(=N)N)C(=O)N[C@@H](CCCCN)C(=O)N[C@@H](CCCNC(=N)N)C(=O)N[C@@H](CC(C)C)C(=O)N[C@@H](CC(C)C)C(N)=O [Conjugate 2] (HELM PEPTIDE1{[ac].[NC(=NC(=O)c1nc(Cl)c(N)nc1N)NCCCC[C@H](N[*:1])C(=O)[*:2]].[O=C(CCCCCN[*:1])[*:2]].A.S.H.L.R.K.L.R.K.R.L.L.[am]}$$$$V2.0) | 80
7 | CC(=O)N[C@@H](CSC1CC(=O)N(CCCCNC(N)=NC(=O)c2nc(Cl)c(N)nc2N)C1=O)C(=O)NCCCCCC(=O)N[C@H](C(=O)N[C@@H](CO)C(=O)N[C@@H](CCCCN)C(=O)N[C@@H](CCCNC(=N)N)C(=O)N[C@@H](CCCNC(=N)N)C(N)=O)C(C)C (some centres unmarked) [Conjugate 12, Ac-(AmilTC-C)-Ahx-VSKRR-NH2] (Ac-C(X2)[Ahx]VSKRR-NH2) | 80
8 | CC(=O)N[C@@H](CCCCn1cc(CCCCCNC(N)=NC(=O)c2nc(Cl)c(N)nc2N)nn1)C(=O)NCCCCCC(=O)N[C@H](C(=O)N[C@@H](CO)C(=O)N[C@@H](CCCCN)C(=O)N[C@@H](CCCNC(=N)N)C(=O)N[C@@H](CCCNC(=N)N)C(N)=O)C(C)C [Conjugate 6, Ac-(AmilCC1-AzK)-Ahx-VSKRR-NH2] | 90
9 | CC[C@H](C)[C@H](NC(=O)[C@H](Cc1ccc(O)cc1)NC(=O)[C@@H]1C[C@@H](O)CN1C(=O)[C@H](C)NC(=O)[C@H](CC(C)C)NC(=O)[C@H](C)NC(=O)CCCCCNC(=O)[C@H](CCCCn1cc(CCCCCNC(N)=NC(=O)c2nc(Cl)c(N)nc2N)nn1)NC(C)=O)C(N)=O [Conjugate 4, Ac-(AmilCC1-AzK)-Ahx-ALA(Hyp)YI-NH2] | 240
10 | CC[C@H](C)[C@H](NC(=O)[C@H](Cc1ccc(O)cc1)NC(=O)[C@@H]1C[C@@H](O)CN1C(=O)[C@H](C)NC(=O)[C@H](CC(C)C)NC(=O)[C@H](C)NC(=O)CCCCCNC(=O)[C@H](CCCCNC(N)=NC(=O)c1nc(Cl)c(N)nc1N)NC(C)=O)C(N)=O [Conjugate 1, Ac-(AmilAC)K-(Ahx)-ALA(Hyp)YI-NH2] (HELM PEPTIDE1{[ac].[NC(=NC(=O)c1nc(Cl)c(N)nc1N)NCCCC[C@H](N[*:1])C(=O)[*:2]].[O=C(CCCCCN[*:1])[*:2]].A.L.A.[Hyp].Y.I.[am]}$$$$V2.0) | 290
11 | CC[C@H](C)[C@H](NC(=O)[C@H](Cc1ccc(O)cc1)NC(=O)[C@@H]1C[C@@H](O)CN1C(=O)[C@H](C)NC(=O)[C@H](CC(C)C)NC(=O)[C@H](C)NC(=O)CCCCCNC(=O)[C@H](Cc1cn(CCCCNC(N)=NC(=O)c2nc(Cl)c(N)nc2N)nn1)NC(C)=O)C(N)=O [Conjugate 7, Ac-(AmilCC2-Pgy)-Ahx-ALA(Hyp)YI-NH2] | 790
12 | CC(=O)N[C@@H](CCCCNC(N)=NC(=O)c1nc(Cl)c(N)nc1N)C(=O)NCCCCCC(=O)N[C@H](C(=O)N[C@@H](CO)C(=O)N[C@@H](CCCCN)C(=O)N[C@@H](CCCNC(=N)N)C(=O)N[C@@H](CCCNC(=N)N)C(N)=O)C(C)C [Conjugate 3, Ac-(AmilAC)K-(Ahx)-VSKRR-NH2] (HELM PEPTIDE1{[ac].[NC(=NC(=O)c1nc(Cl)c(N)nc1N)NCCCC[C@H](N[*:1])C(=O)[*:2]].[O=C(CCCCCN[*:1])[*:2]].V.S.K.R.R.[am]}$$$$V2.0) | 50

Same assay, conditions: relative to amiloride IC50

Row | Compound | fold more potent than amiloride (ENaC inhibition)
13 | CC(=O)N[C@@H](CCCCn1cc(CCCCCNC(N)=NC(=O)c2nc(Cl)c(N)nc2N)nn1)C(=O)NCCCCCC(=O)N[C@@H](C)C(=O)N[C@@H](CO)C(=O)N[C@@H](Cc1c[nH]cn1)C(=O)N[C@@H](CC(C)C)C(=O)N[C@@H](CCCNC(=N)N)C(=O)N[C@@H](CCCCN)C(=O)N[C@@H](CC(C)C)C(=O)N[C@@H](CCCNC(=N)N)C(=O)N[C@@H](CCCCN)C(=O)N[C@@H](CCCNC(=N)N)C(=O)N[C@@H](CC(C)C)C(=O)N[C@@H](CC(C)C)C(N)=O [Conjugate 5] | about 10 fold
14 | CC(=O)N[C@@H](CCCCNC(N)=NC(=O)c1nc(Cl)c(N)nc1N)C(=O)NCCCCCC(=O)N[C@H](C(=O)N[C@@H](CO)C(=O)N[C@@H](CCCCN)C(=O)N[C@@H](CCCNC(=N)N)C(=O)N[C@@H](CCCNC(=N)N)C(N)=O)C(C)C [Conjugate 3, Ac-(AmilAC)K-(Ahx)-VSKRR-NH2] (HELM PEPTIDE1{[ac].[NC(=NC(=O)c1nc(Cl)c(N)nc1N)NCCCC[C@H](N[*:1])C(=O)[*:2]].[O=C(CCCCCN[*:1])[*:2]].V.S.K.R.R.[am]}$$$$V2.0) | about 10 fold
